Experimental data as given in patent US4320057A, “Aryl--pyrrolo--thiazepin--diones and aryl--piperidino--thiazepin--diones” (American Home Products Corporation, priority 1981, dated 1982).

Molecular target: T1, angiotensin converting enzyme (Oryctolagus cuniculus, UniProt P12822)
T1 construct: A crude angiotensin converting enzyme supernatant is obtained by blending 1 gm. of rabbit lung acetone powder; tissue PelFreez Biologicals; host or cells: rabbit lung acetone powder, crude 40,000 xg supernatant
T1 sequence (P12822 34-1310): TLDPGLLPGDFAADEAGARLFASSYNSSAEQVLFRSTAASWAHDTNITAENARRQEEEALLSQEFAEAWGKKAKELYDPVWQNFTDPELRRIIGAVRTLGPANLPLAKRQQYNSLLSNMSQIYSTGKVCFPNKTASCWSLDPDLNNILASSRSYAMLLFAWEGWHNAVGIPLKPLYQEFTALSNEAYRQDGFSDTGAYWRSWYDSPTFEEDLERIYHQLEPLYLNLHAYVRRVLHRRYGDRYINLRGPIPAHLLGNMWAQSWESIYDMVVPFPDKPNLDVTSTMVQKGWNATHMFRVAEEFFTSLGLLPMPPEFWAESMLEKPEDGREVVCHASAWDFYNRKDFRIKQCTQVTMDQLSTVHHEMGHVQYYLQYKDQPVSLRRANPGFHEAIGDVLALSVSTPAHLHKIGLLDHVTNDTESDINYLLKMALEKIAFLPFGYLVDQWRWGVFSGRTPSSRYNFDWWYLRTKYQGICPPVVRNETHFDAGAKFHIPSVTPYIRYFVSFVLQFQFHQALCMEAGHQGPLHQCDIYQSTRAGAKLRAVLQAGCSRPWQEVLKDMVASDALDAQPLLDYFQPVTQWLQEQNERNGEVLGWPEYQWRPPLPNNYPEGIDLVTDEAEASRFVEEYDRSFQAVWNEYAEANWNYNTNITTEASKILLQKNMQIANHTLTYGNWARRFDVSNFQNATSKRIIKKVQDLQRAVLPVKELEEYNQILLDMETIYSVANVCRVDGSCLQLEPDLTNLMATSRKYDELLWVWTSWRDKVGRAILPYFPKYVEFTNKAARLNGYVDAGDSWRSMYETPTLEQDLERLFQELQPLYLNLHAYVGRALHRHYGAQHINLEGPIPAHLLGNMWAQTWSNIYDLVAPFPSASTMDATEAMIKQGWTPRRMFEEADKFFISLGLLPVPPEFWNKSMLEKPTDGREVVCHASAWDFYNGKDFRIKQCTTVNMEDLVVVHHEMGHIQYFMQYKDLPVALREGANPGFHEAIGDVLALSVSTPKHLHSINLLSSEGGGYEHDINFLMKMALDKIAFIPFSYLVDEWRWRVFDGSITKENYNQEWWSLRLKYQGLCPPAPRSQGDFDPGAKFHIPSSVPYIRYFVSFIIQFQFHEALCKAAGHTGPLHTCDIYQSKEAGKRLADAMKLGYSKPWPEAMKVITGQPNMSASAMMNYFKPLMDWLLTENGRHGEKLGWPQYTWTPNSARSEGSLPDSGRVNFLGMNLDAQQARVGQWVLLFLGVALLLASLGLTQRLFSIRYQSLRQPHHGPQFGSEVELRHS
Experiment: incubation of hippuryl-L-histidyl-L-leucine with angiotensin converting enzyme (HHL hydrolysis)
Assay type: biochemical, rabbit
Details: 100 ng/ml; read-out: inhibition of angiotensin converting enzyme in vitro
Protocol: The activity of the compounds of this invention was established by incubation of hippuryl-L-histidyl-L-leucine at 37° C. with angiotensin converting enzyme by the following procedure:
A crude angiotensin converting enzyme supernatant is obtained by blending 1 gm. of rabbit lung acetone powder (PelFreez Biologicals) with 35 ml of 50 mM (buffered) potassium phosphate, pH 8.3 and centrifuging for 45 min. at 40,000 xg.
The specific angiotensin converting enzyme substrate Hippuryl-L-histidyl-L-leucine (HHL-Sigma Chem. Co.) is prepared at 5 mM in 200 mM potassium phosphate buffer containing 757 mM NaCl at pH 8.3.
Incubation for the assay of HHL hydrolysis by angiotensin converting enzyme is carried out in a 37° C. gyrorotary incubator in disposable 13×100 mm tubes. Each 0.25 ml assay mixture contains the following components at the final concentrations: potassium phosphate buffer, 100 mM; NaCl, 300 mM; HHL, 5 mM; and enzyme 0.15 ml (10 mU approx.) added last to initiate the reaction. Zero time controls have 0.25 ml of 2N HCl added before the enzyme. The timed reactions are terminated with acid at 30 min. similarly and the hippuric acid freed from substrate is extracted into 1.5 ml of ethylacetate by vortex mixing for 15 sec. […]
The hippuric acid is resuspended in 1.0 ml of water, the absorbance at 228 nm is determined, and the amount present is calculated from a standard curve. […]

SMILES: CC(CSC(=O)c1ccccc1)C(=O)N1C(C(=O)O)CCC1c1ccccc1 (stereo not drawn) [α-acid of Example 7, α-and β-5-Phenyl-1-(3-benzoylthio-2-methyl-1-oxopropyl)proline]
- inhibition at 0.1 µg/mL: 5%
